# Results reported in patent US9090600B2, “Fungicidal 4-substituted-3-{phenyl[(heterocyclylmethoxy)imino]methyl}-1,2,4-oxadizol-5(4H)-one derivatives” (BAYER INTELLECTUAL PROPERTY GMBH, priority 2011, dated 2015).
# Marks after values point to notes of the source that are not given here.
# Settings: pH 2.7
row,SMILES,LogP
1,C=CCC#CCCOC(=O)Nc1cccc(CO/N=C(/c2ccccc2)c2noc(=O)n2C)n1 [compound 452],4.01 [a]
2,C=CCCCCOC(=O)Nc1cccc(CO/N=C(/c2ccccc2)c2noc(=O)n2C)n1 [compound 454],4.39 [a]
3,Cn1c(/C(=N\OCc2cccc(NC(=O)OCCOc3ccccc3)n2)c2ccccc2)noc1=O [compound 456],3.94 [a]
4,COC(C)(C)CCOC(=O)Nc1cccc(CO/N=C(/c2ccccc2)c2noc(=O)n2C)n1 [compound 457],3.59 [a]
5,Cc1cccc(COC(=O)Nc2cccc(CO/N=C(/c3ccccc3)c3noc(=O)n3C)n2)c1 [compound 458],4.34 [a]
6,Cn1c(/C(=N\OCc2cccc(NC(=O)OCCBr)n2)c2ccccc2)noc1=O [compound 459],3.42 [a]
7,Cn1c(/C(=N\OCc2cccc(NC(=O)OCC(Cl)Cl)n2)c2ccccc2)noc1=O [compound 461],3.74 [a]
8,CC(C)[C@@H]1CC[C@@H](C)C[C@H]1OC(=O)Nc1cccc(CO/N=C(/c2ccccc2)c2noc(=O)n2C)n1 [compound 462],5.9 [a]
9,CCCCCCCCOC(=O)Nc1cccc(CO/N=C(/c2ccccc2)c2noc(=O)n2C)n1 [compound 465],5.65 [a]
10,C=C(C)OC(=O)Nc1cccc(CO/N=C(/c2ccccc2)c2noc(=O)n2C)n1 [compound 466],3.37 [a]
11,CCCc1ccc(OC(=O)Nc2cccc(CO/N=C(/c3ccccc3)c3noc(=O)n3C)n2)cc1 [compound 467],4.74 [a]
12,Cn1c(/C(=N\OCc2cccc(NC(=O)OCC#Cc3ccccc3)n2)c2ccccc2)noc1=O [compound 468],4.25 [a]
13,CCCc1cccc(OC(=O)Nc2cccc(CO/N=C(/c3ccccc3)c3noc(=O)n3C)n2)c1 [compound 469],4.72 [a]
14,Cc1cc(C)c(OC(=O)Nc2cccc(CO/N=C(/c3ccccc3)c3noc(=O)n3C)n2)c(C)c1 [compound 470],4.56 [a]
15,Cn1c(/C(=N\OCc2cccc(NC(=O)OCCc3ccccn3)n2)c2ccccc2)noc1=O [compound 471],2.07 [a]
16,CN(C)CCCOC(=O)Nc1cccc(CO/N=C(/c2ccccc2)c2noc(=O)n2C)n1 [compound 472],1.88 [a]
17,Cn1c(/C(=N\OCc2cccc(NC(=O)OCC3CC3)n2)c2ccccc2)noc1=O [compound 473],3.64 [a]
18,Cn1c(/C(=N\OCc2cccc(NC(=O)OCc3ccc([N+](=O)[O-])cc3)n2)c2ccccc2)noc1=O [compound 476],3.83 [a]
19,Cn1c(/C(=N\OCc2cccc(NC(=O)OCc3cccc(C#N)c3)n2)c2ccccc2)noc1=O [compound 477],3.65 [a]
20,CCc1ccc(OC(=O)Nc2cccc(CO/N=C(/c3ccccc3)c3noc(=O)n3C)n2)cc1 [compound 478],4.39 [a]
21,C=COC(=O)Nc1cccc(CO/N=C(/c2ccccc2)c2noc(=O)n2C)n1 [compound 482],3.33 [a]
22,Cn1c(C(=NOCc2cccc(NC(=O)OCC3CCCO3)n2)c2ccccc2)noc1=O (stereo not drawn) [compound 483],3.11 [a]
23,C#CCCCCOC(=O)Nc1cccc(CON=C(c2ccccc2)c2noc(=O)n2C)n1 [compound 484],3.78 [a]
24,CC(OC(=O)Nc1cccc(CON=C(c2ccccc2)c2noc(=O)n2C)n1)C1CCCCC1 (stereo not drawn) [compound 485],5.25 [a]
25,Cn1c(C(=NOCc2cccc(NC(=O)OCCCCCCCl)n2)c2ccccc2)noc1=O [compound 486],4.49 [a]

row,SMILES,LogP
1,Cc1ccccc1COC(=O)Nc1cccc(CON=C(c2ccccc2)c2noc(=O)n2C)n1 [compound 487],4.29 [a]
2,CCC=CCCCOC(=O)Nc1cccc(CON=C(c2ccccc2)c2noc(=O)n2C)n1 [compound 488],4.78 [a]
3,COC(=O)C(C)(C)COC(=O)Nc1cccc(CON=C(c2ccccc2)c2noc(=O)n2C)n1 [compound 489],3.65 [a]
4,C=CCOCCOC(=O)Nc1cccc(CON=C(c2ccccc2)c2noc(=O)n2C)n1 [compound 490],3.37 [a]
5,COC(=O)C(C)COC(=O)Nc1cccc(CON=C(c2ccccc2)c2noc(=O)n2C)n1 (stereo not drawn) [compound 491],3.33 [a]
6,CC(C)c1ccc(OC(=O)Nc2cccc(CON=C(c3ccccc3)c3noc(=O)n3C)n2)cc1 [compound 492],4.67 [a]
7,Cc1cccc(C)c1OC(=O)Nc1cccc(CON=C(c2ccccc2)c2noc(=O)n2C)n1 [compound 494],4.2 [a]
8,Cn1c(C(=NOCc2cccc(NC(=O)OCc3ccccc3F)n2)c2ccccc2)noc1=O [compound 495],4.01 [a]
9,Cn1c(C(=NOCc2cccc(NC(=O)OCCOC3CCCCC3)n2)c2ccccc2)noc1=O [compound 496],4.31 [a]
10,Cn1c(C(=NOCc2cccc(NC(=O)OCCCc3cccnc3)n2)c2ccccc2)noc1=O [compound 497],2.11 [a]
11,Cc1cc(C)cc(COC(=O)Nc2cccc(CON=C(c3ccccc3)c3noc(=O)n3C)n2)c1 [compound 498],4.68 [a]
12,Cn1c(C(=NOCc2cccc(NC(=O)OCC(F)(F)F)n2)c2ccccc2)noc1=O [compound 500],3.57 [a]
13,Cn1c(C(=NOCc2cccc(NC(=O)OCc3cccc(F)c3)n2)c2ccccc2)noc1=O [compound 501],4.01 [a]
14,CC(OC(=O)Nc1cccc(CON=C(c2ccccc2)c2noc(=O)n2C)n1)C1CCCC1 (stereo not drawn) [compound 502],4.82 [a]
15,CCC#CCOC(=O)Nc1cccc(CON=C(c2ccccc2)c2noc(=O)n2C)n1 [compound 503],3.78 [a]
16,C=C(C)COC(=O)Nc1cccc(CON=C(c2ccccc2)c2noc(=O)n2C)n1 [compound 504],3.73 [a]
17,CC=CCCCOC(=O)Nc1cccc(CON=C(c2ccccc2)c2noc(=O)n2C)n1 [compound 505],4.39 [a]
18,CC(C)CCCCOC(=O)Nc1cccc(CON=C(c2ccccc2)c2noc(=O)n2C)n1 [compound 506],5.17 [a]
19,CCCC=CCOC(=O)Nc1cccc(CON=C(c2ccccc2)c2noc(=O)n2C)n1 [compound 507],4.56 [a]
20,CC=CCCCOC(=O)Nc1cccc(CON=C(c2ccccc2)c2noc(=O)n2C)n1 [compound 509],4.44 [a]
21,CCCC#CCCOC(=O)Nc1cccc(CON=C(c2ccccc2)c2noc(=O)n2C)n1 [compound 511],4.31 [a]
22,CC(=O)OCCCCOC(=O)Nc1cccc(CO/N=C(/c2ccccc2)c2noc(=O)n2C)n1 [compound 514],3.35 [a]
23,C=CC(=O)OCCOC(=O)Nc1cccc(CO/N=C(/c2ccccc2)c2noc(=O)n2C)n1 [compound 515],3.21 [a]
24,CSCCCOC(=O)Nc1cccc(CO/N=C(/c2ccccc2)c2noc(=O)n2C)n1 [compound 516],3.68 [a]
25,Cn1c(/C(=N\OCc2cccc(NC(=O)OCCCl)n2)c2ccccc2)noc1=O [compound 518],3.29 [a]

row,SMILES,LogP
1,CCC1(COC(=O)Nc2cccc(CO/N=C(/c3ccccc3)c3noc(=O)n3C)n2)COC1 [compound 520],3.27 [a]
2,Cc1ccccc1OC(=O)Nc1cccc(CO/N=C(/c2ccccc2)c2noc(=O)n2C)n1 [compound 521],3.96 [a]
3,CC/C=C/CCOC(=O)Nc1cccc(CO/N=C(/c2ccccc2)c2noc(=O)n2C)n1 [compound 522],4.46 [a]
4,Cn1c(/C(=N\OCc2cccc(NC(=O)OCCCC3CCCCC3)n2)c2ccccc2)noc1=O [compound 523],5.71 [a]
5,Cn1c(/C(=N\OCc2cccc(NC(=O)OCC3CCOC3)n2)c2ccccc2)noc1=O (stereo not drawn) [compound 524],2.98 [a]
6,Cn1c(/C(=N\OCc2cccc(NC(=O)OCC3CC=CCC3)n2)c2ccccc2)noc1=O (stereo not drawn) [compound 526],4.51 [a]
7,Cn1c(/C(=N\OCc2cccc(NC(=O)OCc3cccs3)n2)c2ccccc2)noc1=O [compound 527],3.83 [a]
8,Cn1c(/C(=N\OCc2cccc(NC(=O)OCc3ccc(F)cc3)n2)c2ccccc2)noc1=O [compound 528],3.99 [a]
9,Cn1c(/C(=N\OCc2cccc(NC(=O)OCC3COCO3)n2)c2ccccc2)noc1=O (stereo not drawn) [compound 529],2.73 [a]
10,CCCOCCOC(=O)Nc1cccc(CO/N=C(/c2ccccc2)c2noc(=O)n2C)n1 [compound 531],3.57 [a]
11,COc1ccc(OC(=O)Nc2cccc(CO/N=C(/c3ccccc3)c3noc(=O)n3C)n2)cc1 [compound 532],3.69 [a]
12,Cn1c(/C(=N\OCc2cccc(NC(=O)OCCC3CCCC3)n2)c2ccccc2)noc1=O [compound 533],4.9 [a]
13,CCC/C=C\COC(=O)Nc1cccc(CO/N=C(/c2ccccc2)c2noc(=O)n2C)n1 [compound 535],4.53 [a]
14,Cn1c(/C(=N\OCc2cccc(NC(=O)OCC(Cl)(Cl)Cl)n2)c2ccccc2)noc1=O [compound 536],4.15 [a]
15,Cn1c(/C(=N\OCc2cccc(NC(=O)OCCC3CCOCC3)n2)c2ccccc2)noc1=O [compound 537],3.44 [a]
16,CC/C=C\CCOC(=O)Nc1cccc(CO/N=C(/c2ccccc2)c2noc(=O)n2C)n1 [compound 540],4.44 [a]
17,Cn1c(/C(=N\OCc2cccc(NC(=O)OCC3CCCCC3)n2)c2ccccc2)noc1=O [compound 541],4.88 [a]
18,Cn1c(/C(=N\OCc2cccc(NC(=O)OCC[Si](C)(C)C)n2)c2ccccc2)noc1=O [compound 542],4.88 [a]
19,Cn1c(/C(=N\OCc2cccc(NC(=O)OCCCCl)n2)c2ccccc2)noc1=O [compound 544],3.6 [a]
20,CC(C)OCCOC(=O)Nc1cccc(CO/N=C(/c2ccccc2)c2noc(=O)n2C)n1 [compound 545],3.44 [a]
21,Cc1ccc(COC(=O)Nc2cccc(CO/N=C(/c3ccccc3)c3noc(=O)n3C)n2)cc1 [compound 546],4.31 [a]
22,COC(=O)Nc1cccc(CO/N=C(/c2ccccc2)c2noc(=O)n2C)n1 [compound 547],2.84 [a]
23,CC#CCCOC(=O)Nc1cccc(CO/N=C(/c2ccccc2)c2noc(=O)n2C)n1 [compound 548],3.58 [a]
24,Cn1c(/C(=N\OCc2cccc(NC(=O)OCCCC3CC3)n2)c2ccccc2)noc1=O [compound 549],4.37 [a]
25,Cn1c(/C(=N\OCc2cccc(NC(=O)OCCCCCl)n2)c2ccccc2)noc1=O [compound 550],3.83 [a]
